Like-named read-outs stand apart in the source and are kept apart here.
Assays:
[1] = tested on: isolated rat bladder strips; assay: Inhibition of contractions of isolated rat bladder strips; settings: for IC50: 0.5 h; for inhibition at 30 µM: read-out: % Inhibition of Contractility @ 30 μM
Protocol: The compounds of the examples were tested to determine their ability to inhibit contractions of isolated rat bladder strips. See Foster, C. […] Malmgren, A. et al. J.Urol.
Male Sprague-Dawley rats (150-200 g) were obtained from ACE animal suppliers. Animals were allowed free access to food and water.
Animals were euthanized by CO2 asphyxiation followed by a bilateral thoracotomy. […] The bladder was opened and then cut into strips 1-2 mm in width and 7-10 mm in length. The strips were subsequently suspended in a 10 ml tissue bath under an initial resting tension of 1.5 g. The strips were held in place by two surgical clips one of which was attached to a fixed hook while the other was attached to an isometric force transducer. […] The carbachol was then washed out and the tissue allowed to relax to its resting level of activity. Following a further 30 minute period of recovery an additional 15 mM KCl were introduced into the tissue bath. […] Following stabilization of this enhanced level of contractile activity, incremental increases in the concentration of test compound or vehicle were introduced into the tissue bath. Contractile activity was measured for each compound or vehicle concentration during the last minute of a 30 minute challenge.
Isometric force developed by the bladder strips was measured using a force transducer and recorded on a polygraph. Contractile activity was assessed by measuring either the average amplitude of the contractions (baseline to peak force) occurring during a one minute period or, preferably, by integrating the contractile activity with respect to time (one minute measuring period).
The percentage inhibition of contractile activity evoked by each concentration of a given test compounds was used to generate a concentration-response curve.

[2] = concentration eliciting 50% inhibition of pre-drug contractile activity, strips stimulated with additional 15 mM KCl, 30 minute challenge per concentration, read-out: IC50
[3] = maximum percentage inhibition of contractile activity, 30 μM, strips stimulated with additional 15 mM KCl

Row | Structure (SMILES) | melting point | IC50 [1, 2] [µM] | further results
1 | O=C(CCc1ccccc1)Nc1ccc2oc3c(c2c1)CCCC3 [Example 21, 3-PHENYL-N-(6,7,8,9-TETRAHYDRODIBENZO[B,D]FURAN-2-YL)PROPANAMIDE] | – | – | inhibition at 30 µM [1, 3]: 10 to 30%
2 | O=C(Nc1ccc2oc3c(c2c1)CCCC3)c1ccc(C(F)(F)F)cc1 [Example 20, N-(6,7,8,9-TETRAHYDRODIBENZO[B,D]FURAN-2-YL)-4-(TRIFLUOROMETHYL)BENZAMIDE] | – | – | inhibition at 30 µM [1, 3]: 15 to 40%
3 | CCN(C)CC(=O)Nc1ccc2oc3c(c2c1)CCCCC3 [Example 46, N^2-ETHYL-N^2-METHYL-N′-7,8,9,10-TETRAHYDRO-6H-BENZO[B]CYCLOHEPTA[D]FURAN-2-YLGLYCINAMIDE] | – | – | IC50 [1]: 7 to 9 µM
4 | NCC(=O)Nc1ccc2oc3c(c2c1)CCCCC3 [Example 52, N^1-7,8,9,10-TETRAHYDRO-6H-BENZO[B]CYCLOHEPTA[D]FURAN-2-YLGLYCINAMIDE] | – | – | inhibition at 30 µM [1]: 20 to 30%
5 | O=C(Cc1ccncc1)Nc1ccc2oc3c(c2c1)CCCCCC3 [Example 78, N-(6,7,8,9,10,11-HEXAHYDROBENZO[B]CYCLOOCTA[D]FURAN-2-YL)-2-PYRIDIN-4-YLACETAMIDE] | – | – | IC50 [1]: 10 to 14 µM
6 | CCCCCCC(=O)Nc1ccc2oc3c(c2c1)CCCCCC3 [Example 82, N-6,7,8,9,10,11-HEXAHYDROBENZO[B]CYCLOOCTA[D]FURAN-2-YLHEPTANAMIDE] | – | – | IC50 [1]: 0.6 to 2 µM
7 | O=C(Cc1ccc(F)cc1)Nc1ccc2oc3c(c2c1)CCCCC3 [Example 30, 2-(4-FLUOROPHENYL)-N-(7,8,9,10-TETRAHYDRO-6H-BENZO[B]CYCLOHEPTA[D]FURAN-2-YL)ACETAMIDE] | – | – | inhibition at 30 µM [1, 3]: 30 to 50%
8 | CN(C)CCN(C)CC(=O)Nc1ccc2oc3c(c2c1)CCCCC3 [Example 41] | – | – | IC50 [1]: 1 to 5 µM
9 | O=C(CN1CCOCC1)Nc1ccc2oc3c(c2c1)CCCCC3 [Example 40, 2-MORPHOLIN-4-YL-N-7,8,9,10-TETRAHYDRO-6H-BENZO[b]CYCLOHEPTA[D]FURAN-2-YLACETAMIDE] | – | – | IC50 [1]: 1 to 3 µM
10 | CC(C)(C)OCC(=O)Nc1ccc2oc3c(c2c1)CCCCC3 [Example 48, 2-TERT-BUTOXY-N-7,8,9,10-TETRAHYDRO-6H-BENZO[B]CYCLOHEPTA[D]FURAN-2-YLACETAMIDE] | – | – | inhibition at 30 µM [1]: 10 to 15%
11 | CC(C)(C)c1ccc(C(=O)Nc2ccc3oc4c(c3c2)CCCCCC4)cc1 [Example 68, 4-TERT-BUTYL-N-(6,7,8,9,10,11-HEXAHYDROBENZO[B]CYCLOOCTA[D]FURAN-2-YL)BENZAMIDE] | – | – | inhibition at 30 µM [1, 3]: 20 to 40%
12 | O=C(Nc1ccc2oc3c(c2c1)CCCCCC3)c1ccncc1 [Example 77, N-(6,7,8,9,10,11-HEXAHYDROBENZO[B]CYCLOOCTA[D]FURAN-2-YL)ISONICOTINAMIDE] | – | – | inhibition at 30 µM [1, 3]: 30 to 50%
13 | CC(CC(=O)Nc1ccc2oc3c(c2c1)CCCCCC3)CC(C)(C)C (stereo not shown) [Example 66, N-(6,7,8,9,10,11-HEXAHYDROBENZO[B]CYCLOOCTA[D]FURAN-2-YL)-3,5,5-TRIMETHYLHEXANAMIDE] | – | – | inhibition at 30 µM [1, 3]: 5 to 20%
14 | O=C(COCCO)Nc1ccc2oc3c(c2c1)CCCCC3 [Example 45, 2-(2-HYDROXYETHOXY)-N-7,8,9,10-TETRAHYDRO-6H-BENZO[B]CYCLOHEPTA[D]FURAN-2-YLACETAMIDE] | – | – | inhibition at 30 µM [1]: 15 to 25%

More lines, main results first:

Row | melting point | IC50 [1, 2] [µM] | Structure (SMILES) | further results
15 | 145.5 to 146 °C | 10 to 20 | CC(C)CCC(=O)Nc1ccc2oc3c(c2c1)CCCC3 [Example 14, 4-METHYL-N-(6,7,8,9-TETRAHYDRO-DIBENZOFURAN-2-YL)-PENTANAMIDE] | –
16 | 208 to 209 °C | 0.1 to 0.4 | CC(C)(C)C(=O)Nc1ccc2oc3c(c2c1)CCCCC3 [Example 27, 2,2-DIMETHYL-N-(6,7,8,9-TETRAHYDRO-5H-10-OXA-BENZO[A]AZULEN-3-YL)-PROPIONAMIDE] | –
17 | 182 to 183 °C | 0.2 to 0.7 | CC(C)(C)CC(=O)Nc1ccc2oc3c(c2c1)CCCCC3 [Example 26, 3,3-DIMETHYL-N-[7,8,9,10-TETRAHYDRO-6H-Benzo[B]-CYCLOHEPTA[d]FURAN-2-YL]BUTYRAMIDE] | –
18 | 179 to 180 °C | 3 to 5 | CCN(CC)C(=O)Nc1ccc2oc3c(c2c1)CCCC3 [Example 84, 1,1-DIETHYL-3-(6,7,8,9-TETRAHYDRO-DIBENZOFURAN-2-YL)-UREA] | –
19 | 180 to 181 °C | 4 to 10 | O=C(CC1CCCCC1)Nc1ccc2oc3c(c2c1)CCCCCC3 [Example 65, 2-CYCLOHEXYL-N-[6,7,8,9,10,11-HEXAHYDRO-BENZO[B]-CYCLOOCTA[D]FURAN-2-YL]ACETAMIDE] | –
20 | 180 to 181 °C | 9.1 to 12 | O=C(Cc1ccccc1)Nc1ccc2oc3c(c2c1)CCCC3 [Example 4, 2-PHENYL-N-(6,7,8,9-TETRAHYDRO-DIBENZOFURAN-2-YL)-ACETAMIDE] | –
21 | 189 to 191 °C | 10 to 15 | O=C(CC1CCCCC1)Nc1ccc2oc3c(c2c1)CCCC3 [Example 7, 2-CYCLOHEXYL-N-(6,7,8,9-TETRAHYDRO-DIBENZOFURAN-2-YL)-ACETAMIDE] | –
22 | 189 to 190 °C | 0.11 to 0.25 | CC(C)(C)C(=O)Nc1ccc2oc3c(c2c1)CCCCCC3 [Example 63, 2,2-DIMETHYL-N-[6,7,8,9,10,11-HEXAHYDRO-BENZO[B]-CYCLOOCTA[D]-FURAN-2-YL]PROPIONAMIDE] | –
23 | 157 to 158 °C | 1 to 5 | CC(C)(C)CC(=O)Nc1ccc2oc3c(c2c1)CCCCCC3 [Example 62, 3,3-DIMETHYL-N-[6,7,8,9,10,11-HEXAHYDRO-BENZO[B]-CYCLOOCTA[D]FURAN-2-YL]BUTYRAMIDE] | –
24 | 164 to 165 °C | 3 to 11 | CC(C)(C)CC(=O)Nc1ccc2oc3c(c2c1)CCCC3 [Example 3, 3,3-DIMETHYL-N-(6,7,8,9-TETRAHYDRO-DIBENZOFURAN-2-YL)-BUTYRAMIDE] | –
25 | 178 to 180 °C | – | O=C(Nc1ccc2oc3c(c2c1)CCCC3)c1ccccc1 [Example 18, N-(6,7,8,9-TETRAHYDRO-DIBENZOFURAN-2-YL)-BENZAMIDE] | inhibition at 30 µM [1, 3]: 40 to 50%
26 | 310 to 312 °C (dec.) | 4 to 5 | CC(C)(C)NC(=O)Nc1ccc2oc3c(c2c1)CCCC3 [Example 83, 1-TERT-BUTYL-3-(6,7,8,9-TETRAHYDRO-DIBENZOFURAN-2-YL)-UREA] | –
27 | – | 1.5 to 2 | C[C@@H](OCc1ccccc1)C(NC(=O)OC(C)(C)C)C(=O)Nc1ccc2oc3c(c2c1)CCCCC3 (stereo in doubt) [Example 59, TERT-BUTYL {(1R,2R)-2-(BENZYLOXY)-1-[(7,8,9,10-TETRAHYDRO-6H-BENZO[B]CYCLOHEPTA[D]FURAN-2-YLAMINO)CARBONYL]PROPYL}CARBAMATE] | –
28 | – | 0.4 to 1.1 | CC(=O)Nc1ccc2oc3c(c2c1)CCCCCC3 [Example 73, N-(6,7,8,9,10,11-HEXAHYDROBENZO[B]CYCLOOCTA[D]FURAN-2-YL)ACETAMIDE] | –
29 | – | 9 to 12 | CCOC(=O)CCC(=O)Nc1ccc2oc3c(c2c1)CCCCC3 [Example 32, ETHYL 4-OXO-4-(7,8,9,10-TETRAHYDRO-6H-BENZO[B]CYCLOHEPTA[D]FURAN-2-YLAMINO)BUTANOATE] | –
30 | – | 7 to 14 | COc1cccc(OC)c1C(=O)Nc1ccc2oc3c(c2c1)CCCCCC3 [Example 76, N-(6,7,8,9,10,11-HEXAHYDROBENZO[B]CYCLOOCTA[D]FURAN-2-YL)-2,6-DIMETHOXYBENZAMIDE] | –
31 | – | 7 to 10 | CC(C)(C)OC(=O)N[C@@H](Cc1ccncc1)C(=O)Nc1ccc2oc3c(c2c1)CCCCC3 [Example 55, TERT-BUTYL [(1S)-2-OXO-1-(PYRIDIN-4-YLMETHYL)-2-(7,8,9,10-TETRAHYDRO-6H-BENZO[B]CYCLOHEPTA[D]FURAN-2-YLAMINO)ETHYL]CARBAMATE] | –

Source: patent publication US7601856B2 (Wyeth, priority 2006, dated 2009)
